Columns and labels:
[1] = test system: normal skin; experiment: Human Repeat Insult Patch Test (RIPT); format: in vivo; conditions: RIPT positive control
Procedure: The objective of the study was to determine irritation and sensitization potential of the composition as a test material after repeated application to skin. Contact sensitization was measured by treatment emergent adverse events (TEAE5), reaction grade and investigator assessment of irritation and sensitization. An informed consent was obtained from each volunteer prior to initiating the study. The consent form described reasons for the study, possible adverse effects, associated risks and potential benefits of the treatment and their limits of liability. […] The present composition was tested under occlusive conditions and placed on an 8-millimeter aluminum Finn Chamber (Epitest Ltd. Oy, Tuusula, Finland) supported on Scanpor Tape (Norgesplaster A/S, Kristiansand, Norway). Alternatively, an 8-mm filter paper coated aluminum Finn Chamber AQUA can be supported on a thin flexible transparent polyurethane rectangular film coated on one side with a medical grade acrylic adhesive, consistent with adhesive used in state-of-the-art hypoallergenic surgical tapes or a 7 mm IQ-ULTRA closed cell system. Such a closed cell system is made of additive-free polyethylene plastic foam with a filter paper incorporated (supplied in units of 10 chambers on a hypoallergenic non-woven adhesive tape having a width of 52 mm and a length of 118 mm) or other equivalents. […] Test materials to be tested in an open patch were applied and rubbed directly onto the back of the subject. Approximately 0.02-0.05 mL (in case of liquids) and/or 0.02-0.05 gm (in case of solids) of the test material was used for the study. Liquid test material was dispensed on a 7.5 mm paper disk, which fit in the Finn Chamber. The following procedure was applied: • 1. Subjects were requested to bathe or wash as usual before arrival at the facility. • 2. […] Patches remained in place for 48 hours after the first application. • 4. Subjects were instructed not to remove the patches prior to their 48 hour scheduled visit. • 5. Thereafter, subjects were instructed to remove patches 24 hours after application for the remainder of the study. • 6. […] Prior to each reapplication, the test sites evaluated by trained laboratory personnel. • 8. Following a 10-14 day rest period a retest/challenge dose was applied once to a previously unexposed test site. Test sites were evaluated by trained laboratory personnel 48 and 96 hours after application. In the event of an adverse reaction, the area of erythema and edema were to be measured. Edema is estimated by the evaluation of the skin with respect to the contour of the unaffected normal skin. Subjects were instructed to report any delayed reactions that might occur after the final reading. […] Site discontinued • Dc: Subject discontinued voluntarily • DcI: Subject discontinued per Investigator

[2] = cited from earlier work

SMILES | subjects with a Grade 1 reaction ([1]; Grade 1: erythema) [subjects] | subjects with a Grade 2 reaction ([1]; Grade 2: erythema and induration) [subjects] | subjects with a Grade 3 reaction ([1]; Grade 3: erythema, induration and vesicles) [subjects] | subjects with a Grade 4 reaction ([1]; Grade 4: erythema, induration and bullae) [subjects] | subjects with a delayed Grade 2 reaction ([1]; delayed reaction) [subjects] | solubility in oil and alcohol [2]
CCCCCCCCCCCCOS(=O)(=O)[O-].[Na+] [2.0% Sodium Lauryl Sulfate Solution, Sodium Lauryl Sulfate] | 12 | 4 | 1 | 3 | 1 | 
CC(C)C1CC[C@@H](C)C[C@H]1O (single isomer, unassigned; (-)) [Menthol crystals, (−)-menthol] |  |  |  |  |  | soluble in both oil and alcohol
